{"source": "patent US5559092A", "about": "“Cosmetic composition” (Chesebrough-Pond's USA Co. Division of Conopco, Inc., priority 1992, dated 1996)", "key": {"[1]": {"test_system": "isolated human hair follicles", "test": "in vitro hair follicle growth test (elongation of isolated human hair follicles in culture medium)", "format": "cell-based", "protocol": "The effect of compounds on hair growth was assessed using an in vitro test which measures the elongation of isolated human hair follicles in a culture medium.\nThis test includes the important step of isolating hair follicles having an undamaged hair bulb from human skin, for example, facelift skin, by microdissection.\nThe critical step of separating the hair follicle with intact undamaged hair bulb from the subcutaneous fatty tissue in which it is situated accordingly involves severing the hair shaft of the follicle at a point below the epidermis of skin surface, so as to leave the hair bulb intact and undamaged while still bearing a portion of the hair shaft.\nPreferably, the hair shaft of the follicle is severed at the dermal-subcutaneous fat interface.\nAny suitable cutting instrument can be employed to sever the hair shaft in this manner, but a keratotome or a scalpel are preferred.\nThe hair bulb with a hair Shaft stump attached is then isolated from the skin by mechanically separating the hair from loosely adhering subcutaneous fat which normally surrounds the hair bulb. This is achieved after the dermis or upper layer of the skin has been separated and removed, to avoid damaging the hair bulb as it is pulled away.\nThe hair bulb together with hair shaft stump attached, is then transferred in an otherwise undamaged and fully functioning, viable state to a nutrient medium.\nThe hair follicles isolated by the technique described herein are transferred to a suitable culture medium for subsequent testing of substances that can then influence their future development.\nThe procedure now to be described represents a preferred method of culture and testing of hair growth.\nIn accordance with the preferred method of culture, isolated hair follicles, […], are maintained in 1 ml of Williams E medium, either with or without a test hair growth substance, supplemented with […] (Penicillin and Streptomyein), Insulin (10 ng/ml) and Hydrocortisone (10 ng/ml). The medium was incubated at 37° C. in an atmosphere of 5% CO2 +95% air in individual wells of a 24 multiwell dish (Corning), which permits detailed measurements to be made of the length of individual hair follicles. The medium was refreshed once during the experiment after 4 days.\nWilliams E medium is available from FLOW Laboratory under Catalogue No. 12-502. […]\nDaily growth rate and cumulative growth for each follicle were calculated by measuring the change in length of the follicles each day and from this the average of all the follicles was calculated.\nThe response of an isolated hair follicle to a test substance, can accordingly be assessed by measuring the increase in length, if any, in the presence of a test substance against a control. […]"}, "[2]": {"test": "storage stability in aqueous hair treatment composition (shampoo, conditioner or tonic)", "format": "physicochemical", "conditions": "ambient temperature, 3 months", "description": "From these observations, it was realised that the αNH2 group of glutamine should be protected in order to stablise the molecule."}, "[3]": {"conditions": "2 mM in Williams E medium & glucose"}}, "note": "“Also recorded” adds a separate entry of the source.", "data": [{"smiles": "NC(=O)CC[C@H](N)C(=O)O", "note": "[Glutamine, glutamine]", "values": [{"measurement": "Amount of hair grown in one week", "setting": "[1]; [3]", "result": 2.02, "unit": "mm"}, {"measurement": "Average daily rate of growth of hair over one week", "setting": "[1]; [3]", "result": 0.277, "unit": "mm/d"}, {"measurement": "potency as hair growth promoter after storage", "setting": "[1]; after 3 months storage at 20° C.", "result": "diminished significantly"}, {"measurement": "effect on linear hair growth (in words)", "setting": "[1]; isolated human follicles in vitro, compared with the control", "result": "potent promoter of linear hair growth; also recorded: significant increase in hair growth"}, {"measurement": "stability during storage in aqueous hair treatment composition", "setting": "[2]", "result": "a significant amount of the glutamine had been converted to pyroglutamic acid and ammonia"}]}]}
